Measured values published in US20250144067A1, “PERSONALIZED STARVATION THERAPY FOR CANCER” (Faeth Therapeutics, Inc., priority 2021, published 2025).
Structures can show the parent of a compound that is named as a salt. Where two headings read alike, the source gives them in different places.

What was measured:
[1] = test system: NCI-H292 lung cancer cells; test: FDA drug screening, complete media vs cholesterol-free media with simvastatin (TABLE 2); format: cell-based, human
[2] = test system: NCI-H292 lung cancer cells; test: FDA drug screening, complete media vs cholesterol-free media without statin (TABLE 1); format: cell-based, human
[3] = NCI-H292 cells, cholesterol-free media with simvastatin 0.04 μM, cell growth value in FDA drug screen
[4] = NCI-H292 cells, complete media, cell growth value in FDA drug screen
[5] = complete media minus cholesterol-free media + simvastatin, >0 enhanced anti-cancer activity, about 0 neutral, <0 antagonist
[6] = Complete minus Cholesterol-free, >0 enhanced anti-cancer activity, about 0 neutral, <0 antagonist
[7] = NCI-H292 cells, cholesterol-free media without statin
[8] = NCI-H292 cells, FDA library drug in cholesterol-free media with simvastatin 0.04 μM
[9] = NCI-H292 cells, FDA library drug in complete media
[10] = complete media vs cholesterol-free media + simvastatin (0.04 μM), >0 enhanced anti-cancer activity, about 0 neutral, <0 antagonist
[11] = NCI-H292 cells, cholesterol-free media without statin, FDA drug library screen
[12] = NCI-H292 cells, complete media, FDA drug library screen
[13] = complete vs cholesterol-free media, >0 enhanced anti-cancer activity, about 0 neutral, <0 antagonist
[14] = NCI-H292 cells, drug in cholesterol-free media with simvastatin 0.04 μM
[15] = NCI-H292 cells, drug in complete media
[16] = complete vs cholesterol-free media, greater than 0 enhanced anti-cancer activity, about 0 neutral, below 0 antagonists
[17] = NCI-H292 cells, FDA drug library screen, cholesterol-free media with simvastatin 0.04 μM
[18] = NCI-H292 cells, FDA drug library screen, complete media
[19] = Complete minus Cholesterol-free, greater than 0 enhanced anti-cancer activity, about 0 neutral, below 0 antagonist
[20] = NCI-H292 cells, FDA drug library screen, cholesterol-free media without statin
[21] = NCI-H292 cells, cholesterol-free media with simvastatin 0.04 μM, FDA drug library screen (TABLE 2)
[22] = NCI-H292 cells, complete media, FDA drug library screen (TABLE 2)
[23] = complete media minus cholesterol-free media + simvastatin (0.04 μM), >0 enhanced anti-cancer activity, about 0 neutral, <0 antagonist
[24] = Complete minus Cholesterol-free, greater than 0 enhanced anti-cancer activity, about 0 neutral, below 0 antagonists
[25] = NCI-H292 cells in cholesterol-free media without statin
[26] = NCI-H292 cells in complete media
[27] = complete media minus cholesterol-free media + simvastatin (0.04 μM), […]
[28] = Complete minus Cholesterol-free, […]

SMILES: CCCCCCCC/C=C\CCCCCCCC(=O)O [Oleic acid]
- Cholesterol-free media + simvastatin (0.04 μM) [1, 3]: 0.7267
- Complete Media [1, 4]: 0.8301
- Difference [1, 5]: 0.10
- Difference [2, 6]: −0.25
- Cholesterol-free [2, 7]: 1.214
- Complete ([2]; NCI-H292 cells, complete media): 0.9643

SMILES: CCCc1nc(C(C)(C)O)c(C(=O)OCc2oc(=O)oc2C)n1Cc1ccc(-c2ccccc2-c2nnn[nH]2)cc1 [Olmesartan medoxomil]
- Cholesterol-free media + simvastatin (0.04 μM) [1, 8]: 2.007
- Complete Media [1, 9]: 1.701
- Difference [1, 10]: −0.31
- Cholesterol-free [2, 11]: 0.613
- Complete [2, 12]: 1.033
- Difference [2, 13]: 0.42

SMILES: CCCc1nc(C(C)(C)O)c(C(=O)O)n1Cc1ccc(-c2ccccc2-c2nnn[nH]2)cc1 [Olmesartan]
- Cholesterol-free media + simvastatin (0.04 μM) [1, 14]: 1.131
- Complete Media [1, 15]: 0.942
- Difference [1, 10]: −0.19
- Cholesterol-free [2, 7]: 1.93
- Complete ([2]; NCI-H292 cells, complete media): 1.465
- Difference [2, 16]: −0.46

SMILES: C=CC(=O)Nc1cccc(Oc2nc(Nc3ccc(N4CCN(C)CC4)cc3)nc3ccsc23)c1 [Olmutinib]
- Cholesterol-free media + simvastatin (0.04 μM) [1, 17]: 0.5571
- Complete Media [1, 18]: 0.4482
- Difference [1, 10]: −0.11
- Cholesterol-free [2, 11]: 0.5571
- Complete [2, 12]: 0.798
- Difference [2, 13]: 0.24

SMILES: CN(C)CC/C=C1/c2ccccc2COc2ccc(CC(=O)O)cc21 [Olopatadine (hydrochloride)]
- Cholesterol-free media + simvastatin (0.04 μM) [1, 17]: 0.9644
- Complete Media [1, 18]: 0.8474
- Difference [1, 10]: −0.12
- Difference [2, 19]: −0.13
- Cholesterol-free [2, 20]: 1.018
- Complete [2, 18]: 0.8917

SMILES: Cc1[nH]c(=O)c(C#N)cc1-c1ccc2nccn2c1 [Olprinone (Hydrochloride)]
- Cholesterol-free media + simvastatin (0.04 μM) [1, 21]: 1.653
- Complete Media [1, 22]: 1.64
- Difference [1, 23]: −0.01
- Difference [2, 6]: −0.27
- Cholesterol-free [2, 7]: 1.142
- Complete ([2]; NCI-H292 cells, complete media): 0.8745

SMILES: O=C(O)c1cc(/N=N/c2ccc(O)c(C(=O)O)c2)ccc1O [Olsalazine (Disodium)]
- Cholesterol-free media + simvastatin (0.04 μM) [1, 21]: 1.218
- Difference [1, 23]: −0.07
- Difference [2, 6]: −0.25
- Cholesterol-free [2, 7]: 1.211
- Complete ([2]; NCI-H292 cells, complete media): 0.9604

SMILES: CN(C)c1cc(CNCC(C)(C)C)c(O)c2c1C[C@H]1C[C@H]3[C@H](N(C)C)C(O)=C(C(N)=O)C(=O)[C@@]3(O)C(O)=C1C2=O [Omadacycline (hydrochloride)]
- Cholesterol-free media + simvastatin (0.04 μM) [1, 17]: 1.209
- Complete Media [1, 18]: 1.089
- Difference [1, 10]: −0.12
- Difference [2, 19]: −0.15
- Cholesterol-free [2, 20]: 1.103
- Complete [2, 18]: 0.9531

SMILES: CS(=O)(=O)n1cc2c(n1)CN([C@H]1CO[C@H](c3cc(F)ccc3F)[C@@H](N)C1)C2 [Omarigliptin]
- Cholesterol-free media + simvastatin (0.04 μM) [1, 8]: 1.764
- Complete Media [1, 9]: 1.42
- Difference [1, 10]: −0.34
- Difference [2, 24]: −0.63
- Cholesterol-free [2, 25]: 1.475
- Complete [2, 26]: 0.8446

SMILES: COC(=O)N[C@H](C(=O)N1CCC[C@H]1C(=O)Nc1ccc([C@@H]2CC[C@@H](c3ccc(NC(=O)[C@@H]4CCCN4C(=O)[C@@H](NC(=O)OC)C(C)C)cc3)N2c2ccc(C(C)(C)C)cc2)cc1)C(C)C [Ombitasvir]
- Cholesterol-free media + simvastatin (0.04 μM) [1, 21]: 0.6017
- Complete Media [1, 22]: 0.5358
- Difference [1, 27]: −0.07
- Difference [2, 28]: −0.17
- Cholesterol-free [2, 20]: 1.001
- Complete [2, 18]: 0.8331

SMILES: COc1ccc2[n-]c([S+]([O-])Cc3ncc(C)c(OC)c3C)nc2c1.[Na+] (stereo not shown) [Omeprazole (sodium)]
- Cholesterol-free media + simvastatin (0.04 μM) [1, 21]: 0.9544
- Complete Media [1, 22]: 0.9688
- Difference [1, 23]: 0.01
- Difference [2, 6]: −0.07
- Cholesterol-free [2, 11]: 0.7641
- Complete [2, 12]: 0.6989

SMILES: COc1ccc2[nH]c([S+]([O-])Cc3ncc(C)c(OC)c3C)nc2c1 (stereo not shown) [Omeprazole]
- Cholesterol-free media + simvastatin (0.04 μM) [1, 14]: 0.8585
- Complete Media [1, 15]: 0.6883
- Difference [1, 10]: −0.17
- Difference [2, 19]: −0.12
- Cholesterol-free [2, 20]: 0.995
- Complete [2, 18]: 0.8798

SMILES: CC(C)OC(=O)CNc1cccc(CN(Cc2ccc(-n3cccn3)cc2)S(=O)(=O)c2cccnc2)n1 [Omidenepag isopropyl]
- Cholesterol-free media + simvastatin (0.04 μM) [1, 3]: 1.236
- Complete Media [1, 4]: 1.286
- Difference [1, 5]: 0.05
- Difference [2, 24]: −0.75
- Cholesterol-free [2, 25]: 1.563
- Complete [2, 26]: 0.8153

SMILES: Cc1nccn1CC1CCc2c(c3ccccc3n2C)C1=O (stereo not shown) [Ondansetron]
- Cholesterol-free media + simvastatin (0.04 μM) [1, 21]: 1.019
- Complete Media [1, 22]: 0.948
- Difference [1, 23]: −0.07
- Difference [2, 6]: −0.05
- Cholesterol-free [2, 11]: 1.168
- Complete [2, 12]: 1.123

SMILES: Cc1c(Cl)c(C)[n+]([O-])c(Cl)c1-c1noc(-c2cc(O)c(O)c([N+](=O)[O-])c2)n1 [Opicapone]
- Cholesterol-free media + simvastatin (0.04 μM) [1, 21]: 0.9346
- Complete Media [1, 22]: 0.8971
- Difference [1, 23]: −0.04
- Difference [2, 19]: −0.13
- Cholesterol-free [2, 20]: 0.8861
- Complete [2, 18]: 0.7591

SMILES: CCCCCCCCCCC[C@@H](C[C@@H]1OC(=O)[C@H]1CCCCCC)OC(=O)[C@H](CC(C)C)NC=O [Orlistat]
- Cholesterol-free media + simvastatin (0.04 μM) [1, 17]: 1.19
- Complete Media [1, 18]: 1.622
- Difference [1, 5]: 0.43
- Cholesterol-free [2, 11]: 1.018
- Complete [2, 12]: 1.513
- Difference [2, 13]: 0.49

SMILES: Cc1ncc([N+](=O)[O-])n1CC(O)CCl (stereo not shown) [Ornidazole (Levo-)]
- Cholesterol-free media + simvastatin (0.04 μM) [1, 3]: 0.9725
- Complete Media [1, 4]: 1.072
- Difference [1, 5]: 0.10
- Difference [2, 24]: −0.58
- Cholesterol-free [2, 25]: 1.634
- Complete [2, 26]: 1.058

SMILES: Cc1ncc([N+](=O)[O-])n1CC(O)CCl (stereo not shown) [Ornidazole]
- Cholesterol-free media + simvastatin (0.04 μM) [1, 14]: 1.385
- Complete Media [1, 15]: 1.209
- Difference [1, 10]: −0.18
- Cholesterol-free [2, 11]: 0.6543
- Complete [2, 12]: 1.082
- Difference [2, 13]: 0.43

SMILES: NCCC[C@H](NC(=O)[C@@H]1CCCN1C(=O)[C@@H]1CSSC[C@H](N)C(=O)N[C@@H](Cc2ccc(O)cc2)C(=O)N[C@@H](Cc2ccccc2)C(=O)N[C@@H](CCC(N)=O)C(=O)N[C@@H](CC(N)=O)C(=O)N1)C(=O)NCC(N)=O [Ornipressin]
- Cholesterol-free media + simvastatin (0.04 μM) [1, 8]: 1.553
- Complete Media [1, 9]: 0.7895
- Difference ([1]; complete media vs cholesterol-free media + simvastatin (0.04 μM), […]): −0.76
- Difference [2, 28]: 0.03
- Cholesterol-free [2, 11]: 1.024
- Complete [2, 12]: 1.051

SMILES: O=C(O)c1cc(=O)[nH]c(=O)[nH]1 [Orotic acid]
- Cholesterol-free media + simvastatin (0.04 μM) [1, 3]: 1.191
- Complete Media [1, 4]: 1.261
- Difference [1, 5]: 0.07
- Difference [2, 6]: −0.23
- Cholesterol-free [2, 7]: 1.001
- Complete ([2]; NCI-H292 cells, complete media): 0.7657

SMILES: O=C(Nc1ccc(O)cc1)c1ccccc1O [Osalmid]
- Cholesterol-free media + simvastatin (0.04 μM) [1, 21]: 0.9033
- Complete Media [1, 22]: 0.8951
- Difference [1, 23]: −0.01
- Cholesterol-free [2, 11]: 1.209
- Complete [2, 12]: 1.432
- Difference [2, 13]: 0.22

SMILES: CCC(CC)O[C@@H]1C=C(C(=O)O)C[C@H](N)[C@H]1NC(C)=O [Oseltamivir acid]
- Cholesterol-free media + simvastatin (0.04 μM) [1, 3]: 0.944
- Complete Media [1, 4]: 1.053
- Difference [1, 5]: 0.11
- Cholesterol-free [2, 7]: 1.419
- Complete ([2]; NCI-H292 cells, complete media): 0.9754
- Difference [2, 16]: −0.44

SMILES: N#Cc1ccc([C@H]2CCc3cncn32)c(F)c1 [Osilodrostat]
- Cholesterol-free media + simvastatin (0.04 μM) [1, 17]: 1.26
- Difference [1, 10]: −0.11
- Difference [2, 24]: −0.71
- Cholesterol-free [2, 25]: 1.647
- Complete [2, 26]: 0.935

SMILES: C=CC(=O)Nc1cc(Nc2nccc(-c3cn(C)c4ccccc34)n2)c(OC)cc1N(C)CCN(C)C [Osimertinib]
- Cholesterol-free media + simvastatin (0.04 μM) [1, 3]: 0.2666
- Complete Media [1, 4]: 0.3123
- Difference [1, 5]: 0.05
- Difference [2, 19]: −0.14
- Cholesterol-free [2, 20]: 0.477
- Complete [2, 18]: 0.3332

SMILES: OCCOc1ccc(/C(=C(/CCCl)c2ccccc2)c2ccccc2)cc1 [Ospemifene]
- Cholesterol-free media + simvastatin (0.04 μM) [1]: 1.909
- Complete Media [1]: 1.222
- Difference [1]: −0.69
- Cholesterol-free [2]: 1.029
- Complete [2]: 1.255
- Difference [2]: 0.23

SMILES: CCCCCCCCOc1ccccc1C(=O)Nc1ccc(C(=O)OCC[N+](C)(CC)CC)cc1.[Br-] [Otilonium (bromide)]
- Cholesterol-free media + simvastatin (0.04 μM) [1]: 0.9764
- Complete Media [1]: 1.024
- Difference [1]: 0.05
- Cholesterol-free [2]: 1.132
- Complete [2]: 0.8071
- Difference [2]: −0.32

SMILES: C[C@@H]1O[C@@H](O[C@H]2C[C@@H](O)[C@]3(CO)[C@H]4[C@H](O)C[C@]5(C)[C@@H](C6=CC(=O)OC6)CC[C@]5(O)[C@@H]4CC[C@]3(O)C2)[C@H](O)[C@H](O)[C@H]1O.O.O.O.O.O.O.O.O [Ouabain (Octahydrate)]
- Cholesterol-free media + simvastatin (0.04 μM) [1, 21]: 0.0005446
- Complete Media [1, 22]: −0.01106
- Difference [1, 27]: −0.01
- Difference [2, 28]: 0.01
- Cholesterol-free [2, 11]: −0.009774
- Complete [2, 12]: −0.0006686
